Values quoted from earlier work as cited in PubChem BioAssay AID1259409 (Chemical Carcinogenesis Research Information System (CCRIS), 2018).

Test system: rodent chemically induced tumor inhibition, incidence and multiplicity
Test: CCRIS tumor inhibitor studies
Conditions: Dose [Inhibitor]: 0; for outcome: Carcinogen: 7,12-DIMETHYLBENZ[A]ANTHRACENE, 57-97-6, Route [Inhibitor]: DERMAL, Strain/Sex: SENCAR/FEMALE, Target Tissue: Type of Lesion: SKIN: TUMOR, Dose [Carcinogen]: 40 NMOL IN 0.2 ML ACETONE ONCE; for tumour outcome (control, treated, inhibition, significance): Promoter: NONE USED

CC1(C)[C@@H](O)CC[C@]2(C)[C@H]3C(=O)C=C4[C@H]5C[C@@](C)(C(=O)O)CC[C@]5(C)CC[C@@]4(C)[C@]3(C)CC[C@@H]12
outcome (10 UMOL IN 0.2 ML DMSO/ACETONE (1:2) 1/D BEGINNING 7 D PRIOR TO CARCINOGEN DOSE (STUDY DURATION: 16 WK), Species: MOUSE): 100%, 65%, 35%, not calculated at 9 wk; 100%, 100%, 0%, not significant at 16 wk
outcome (30 UMOL IN DMSO/ACETONE (1:2) 30 MIN PRIOR TO EACH PROMOTER DOSE (STUDY DURATION: 16 WK), Species: MOUSE): 100%, 10%, 90%, not calculated at 9 wk; 100%, 80%, 20%, not calculated at 16 wk

CCCC(C(=O)OCCN(CC)CC)(c1ccccc1)c1ccccc1
tumour outcome (control, treated, inhibition, significance) (Carcinogen: URETHANE, 51-79-6, 50 MG/KG ONCE AT 24 HR AND 1 HR PRIOR TO CARCINOGEN DOSE THEN ONCE 24 HR AND 48 HR POST CARCINOGEN DOSE (STUDY DURATI, Route [Inhibitor]: INTRAPERITONEAL, Species: MOUSE, Strain/Sex: BALB/MALE, FEMALE, Target Tissue: Type of Lesion: LUNG: TUMOR, Dose [Carcinogen]: 0.5 G/KG IN 0.9% SALINE ONCE): 94%, 91%, 3%, not significant

CCCCC(C)N=C=S (stereo unspecified)
tumour outcome (control, treated, inhibition, significance) (Carcinogen: 4-(METHYLNITROSAMINO)-1-(3-PYRIDYL)-1-BUTANONE, 64091-91-4, 1 UMOL ONCE 2 HR PRIOR TO CARCINOGEN DOSE (STUDY DURATION: 16 WK), Route [Inhibitor]: GAVAGE, Species: MOUSE, Strain/Sex: STRAIN-A/FEMALE, Target Tissue: Type of Lesion: LUNG: ADENOMA, Dose [Carcinogen]: 10 UMOL IN 0.1 ML SALINE ONCE): 100%, 70%, 30%, p<0.05
tumour outcome (control, treated, inhibition, significance) (Carcinogen: 4-(METHYLNITROSAMINO)-1-(3-PYRIDYL)-1-BUTANONE, 64091-91-4, 5 UMOL ONCE 2 HR PRIOR TO CARCINOGEN DOSE (STUDY DURATION: 16 WK), Route [Inhibitor]: GAVAGE, Species: MOUSE, Strain/Sex: STRAIN-A/FEMALE, Target Tissue: Type of Lesion: LUNG: ADENOMA, Dose [Carcinogen]: 10 UMOL IN 0.1 ML SALINE ONCE): 100%, 30%, 70%, p<0.05

Cc1cc(NC(=O)[C@H](CCCN=C(N)N)NC(=O)[C@H](CO)NC(=O)[C@H](Cc2ccccc2)NC(=O)OC(C)(C)C)cc2oc(=O)ccc12
tumour outcome (control, treated, inhibition, significance) (Carcinogen: 1,2-DIMETHYLHYDRAZINE, 540-73-8, 2429 UG/G IN DIET FOR 32 WK BEGINNING AT 24 D OF AGE (STUDY DURATION: 32 WK), Route [Inhibitor]: ORAL, Species: RAT, Strain/Sex: SPRAGUE-DAWLEY/MALE, Target Tissue: Type of Lesion: COLON: ADENOCARCINOMA, Dose [Carcinogen]: 20 MG/KG 1/WK FOR 15 WK BEGINNING ON D 37): 19/22 (86%), 11/16 (69%), 20%, not calculated
tumour outcome (control, treated, inhibition, significance) (Carcinogen: 1,2-DIMETHYLHYDRAZINE, 540-73-8, 2429 UG/G IN DIET FOR 32 WK BEGINNING AT 24 D OF AGE (STUDY DURATION: 32 WK), Route [Inhibitor]: ORAL, Species: RAT, Strain/Sex: SPRAGUE-DAWLEY/MALE, Target Tissue: Type of Lesion: SMALL INTESTINE: ADENOCARCINOMA, Dose [Carcinogen]: 20 MG/KG 1/WK FOR 15 WK BEGINNING ON D 37): 18/22 (82%), 10/16 (63%), 23%, not calculated

CC1(C)CC[C@]2(C(=O)O)CC[C@]3(C)C(=CC[C@@H]4[C@@]5(C)CC[C@H](O)C(C)(C)[C@@H]5CC[C@]43C)[C@@H]2C1
tumour outcome (control, treated, inhibition, significance) (Carcinogen: AZOXYMETHANE, 25843-45-2, 0.02% IN DIET IN WK 1-3 OF STUDY FOLLOWED BY BASAL DIET FOR DURATION OF STUDY (STUDY DURATION: 1 YR), Route [Inhibitor]: ORAL, Species: RAT, Strain/Sex: F344/MALE, Target Tissue: Type of Lesion: LARGE INTESTINE: ADENOCARCINOMA, Dose [Carcinogen]: 15 MG/KG BW 1/WK IN WK 1 AND 2 OF STUDY): 13/27 (48%), 6/29 (21%), 56%, not calculated
tumour outcome (control, treated, inhibition, significance) (Carcinogen: AZOXYMETHANE, 25843-45-2, 0.02% IN DIET IN WK 1-3 OF STUDY FOLLOWED BY BASAL DIET FOR DURATION OF STUDY (STUDY DURATION: 1 YR), Route [Inhibitor]: ORAL, Species: RAT, Strain/Sex: F344/MALE, Target Tissue: Type of Lesion: LARGE INTESTINE: ADENOMA, Dose [Carcinogen]: 15 MG/KG BW 1/WK IN WK 1 AND 2 OF STUDY): 6/27 (22%), 8/29 (28%), -27%, not significant
tumour outcome (control, treated, inhibition, significance) (Carcinogen: AZOXYMETHANE, 25843-45-2, 0.02% IN DIET IN WK 1-3 OF STUDY FOLLOWED BY BASAL DIET FOR DURATION OF STUDY (STUDY DURATION: 1 YR), Route [Inhibitor]: ORAL, Species: RAT, Strain/Sex: F344/MALE, Target Tissue: Type of Lesion: SMALL INTESTINE: ADENOCARCINOMA, Dose [Carcinogen]: 15 MG/KG BW 1/WK IN WK 1 AND 2 OF STUDY): 6/27 (22%), 3/29 (10%), 55%, not calculated

[Cl][Zn][Cl]
tumour outcome (control, treated, inhibition, significance) (Carcinogen: CISPLATIN, 15663-27-1, 40 UMOL/KG/D 3 D/WK FOR 8 WK ADMINISTERED 24 HR PRIOR TO EACH CARCINOGEN DOSE (STUDY DURATION: 24 WK), Route [Inhibitor]: SUBCUTANEOUS, Species: MOUSE, Strain/Sex: STRAIN-A/FEMALE, Target Tissue: Type of Lesion: LUNG: TUMOR, Dose [Carcinogen]: 2 UMOL/KG/D 3 D/WK FOR 8 WK): 100%, 69%, 31%, p<0.05
tumour outcome (control, treated, inhibition, significance) (Carcinogen: MELPHALAN, 148-82-3, 40 UMOL/KG/D 3 D/WK FOR 8 WK ADMINISTERED 24 HR PRIOR TO EACH CARCINOGEN DOSE (STUDY DURATION: 24 WK), Route [Inhibitor]: SUBCUTANEOUS, Species: MOUSE, Strain/Sex: STRAIN-A/FEMALE, Target Tissue: Type of Lesion: LUNG: TUMOR, Dose [Carcinogen]: 4 UMOL/KG/D 3 D/WK FOR 8 WK): 100%, 100%, 0%, not significant

Cc1c(O)cc2c(c1C)OC(C)(CCCC(C)CCCC(C)CCCC(C)C)CC2 (stereo unspecified)
tumour outcome (control, treated, inhibition, significance) (Carcinogen: N-NITROSODIETHYLAMINE, 55-18-5, 5% IN BASAL DIET BEGINNING AT 8 WK OF AGE AND CONTINUING FOR 22 MO (STUDY DURATION: 22 MO), Route [Inhibitor]: ORAL, Species: MOUSE, Strain/Sex: 6HF1/MALE, Target Tissue: Type of Lesion: ESOPHAGUS: SQUAMOUS CELL CARCINOMA, Dose [Carcinogen]: 100 MG/L IN DRINKING WATER DURING 11-13 WK OF AGE): 6/50 (12%), 0/50 (0%), 100%, not calculated
tumour outcome (control, treated, inhibition, significance) (Carcinogen: N-NITROSODIETHYLAMINE, 55-18-5, 5% IN BASAL DIET BEGINNING AT 8 WK OF AGE AND CONTINUING FOR 22 MO (STUDY DURATION: 22 MO), Route [Inhibitor]: ORAL, Species: MOUSE, Strain/Sex: 6HF1/MALE, Target Tissue: Type of Lesion: FORESTOMACH: SQUAMOUS CELL CARCINOMA, Dose [Carcinogen]: 100 MG/L IN DRINKING WATER DURING 11-13 WK OF AGE): 82%, 72%, 12%, not calculated
tumour outcome (control, treated, inhibition, significance) (Carcinogen: N-NITROSODIETHYLAMINE, 55-18-5, 5% IN BASAL DIET BEGINNING AT 8 WK OF AGE AND CONTINUING FOR 22 MO (STUDY DURATION: 22 MO), Route [Inhibitor]: ORAL, Species: MOUSE, Strain/Sex: 6HF1/MALE, Target Tissue: Type of Lesion: LIVER: TUMOR, Dose [Carcinogen]: 100 MG/L IN DRINKING WATER DURING 11-13 WK OF AGE): 39/50 (78%), 40/50 (80%), -3%, not calculated
tumour outcome (control, treated, inhibition, significance) (Carcinogen: N-NITROSODIETHYLAMINE, 55-18-5, 5% IN BASAL DIET BEGINNING AT 8 WK OF AGE AND CONTINUING FOR 22 MO (STUDY DURATION: 22 MO), Route [Inhibitor]: ORAL, Species: MOUSE, Strain/Sex: 6HF1/MALE, Target Tissue: Type of Lesion: LUNG: TUMOR, Dose [Carcinogen]: 100 MG/L IN DRINKING WATER DURING 11-13 WK OF AGE): 42/50 (84%), 24/50 (48%), 43%, p<0.05
